{"source": "patent US7282344B2", "about": "“Cation conducting GABAA receptors and their use” (Neurosearch A/S, priority 2001, dated 2007)", "molecular_target": "T1, GABAA receptor α2 β3 γ2 (wt) (Homo sapiens, UniProt P18507+P28472+P47869)", "T1 construct": "expressed in transfected cells; host or cells: CHO-K1 (ATCC No. CCL61)", "T1 sequence (P47869 29-451)": "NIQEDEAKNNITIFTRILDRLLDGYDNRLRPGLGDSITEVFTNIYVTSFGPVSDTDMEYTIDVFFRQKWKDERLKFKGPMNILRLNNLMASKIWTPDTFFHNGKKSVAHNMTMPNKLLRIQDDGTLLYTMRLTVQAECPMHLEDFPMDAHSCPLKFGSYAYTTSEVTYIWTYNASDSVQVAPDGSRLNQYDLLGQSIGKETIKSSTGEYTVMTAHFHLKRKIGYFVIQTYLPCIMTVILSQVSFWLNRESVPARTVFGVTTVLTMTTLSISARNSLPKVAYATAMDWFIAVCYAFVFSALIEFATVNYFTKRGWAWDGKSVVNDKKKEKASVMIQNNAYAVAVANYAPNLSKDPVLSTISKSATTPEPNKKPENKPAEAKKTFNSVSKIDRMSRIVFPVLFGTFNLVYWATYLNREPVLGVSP", "T1 sequence (P28472 26-473)": "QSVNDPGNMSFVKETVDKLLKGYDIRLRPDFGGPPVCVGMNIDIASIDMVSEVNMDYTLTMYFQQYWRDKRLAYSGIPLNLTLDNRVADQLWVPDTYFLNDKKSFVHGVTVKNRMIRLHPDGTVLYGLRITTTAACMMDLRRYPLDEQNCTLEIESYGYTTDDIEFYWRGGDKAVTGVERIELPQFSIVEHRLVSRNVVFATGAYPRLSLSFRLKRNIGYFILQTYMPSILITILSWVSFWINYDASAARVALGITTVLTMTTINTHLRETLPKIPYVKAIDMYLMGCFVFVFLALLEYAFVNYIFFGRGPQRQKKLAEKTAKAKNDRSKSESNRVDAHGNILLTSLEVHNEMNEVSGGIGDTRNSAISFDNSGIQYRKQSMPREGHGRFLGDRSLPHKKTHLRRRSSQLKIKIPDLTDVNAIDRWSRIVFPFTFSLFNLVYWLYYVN", "T1 sequence (P18507 40-475)": "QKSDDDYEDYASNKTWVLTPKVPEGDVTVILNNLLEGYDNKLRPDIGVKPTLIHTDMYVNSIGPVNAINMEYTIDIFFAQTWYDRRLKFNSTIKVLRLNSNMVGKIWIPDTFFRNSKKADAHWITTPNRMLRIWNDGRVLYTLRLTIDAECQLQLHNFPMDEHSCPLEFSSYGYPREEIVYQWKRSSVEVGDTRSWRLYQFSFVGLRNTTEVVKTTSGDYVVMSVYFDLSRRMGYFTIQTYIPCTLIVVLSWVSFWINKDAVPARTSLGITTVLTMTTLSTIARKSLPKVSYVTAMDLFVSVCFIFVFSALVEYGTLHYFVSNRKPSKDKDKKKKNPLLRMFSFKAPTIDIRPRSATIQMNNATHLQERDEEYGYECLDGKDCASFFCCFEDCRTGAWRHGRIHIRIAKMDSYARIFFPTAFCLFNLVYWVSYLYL", "assay": "[^3H]-Muscimol binding, wild-type receptor", "settings": "wt α2 β3 γ2, membranes from CHO-K1 cells", "experimental": "Binding studies were performed using standard methods. Membranes were prepared from CHO-K1 cells expressing recombinant GABAAR subunits. The cells were washed in PBS (Life Technologies), trypsinized, washed twice in tris-citrate buffer (50 mM, pH 7.1) and centrifuged for 10 minutes at 5,000 g.\nMembranes were resuspended in membrane wash buffer [20 mM KH2PO4K2HPO4, pH 7.5, 50 mM KCl, 0.025% (w/v) NaN3, and various protease inhibitors (1 mM EDTA, 2 mM benzamidine chloride, 0.1 mM benzethonium chloride, 50 U/ml bacitracin, 0.3 mM phenylmethylsulfonyl fluoride, 10 mg/I ovomucoid trypsin inhibitor, 10 mg/l soybean trypsin inhibitor)] and centrifuged for 30 minutes at 177,000 g and 4° C. The pellet was resuspended in binding assay buffer (20 mM KH2PO4/K2HPO4, pH 7.5 and 100 mM KCl) to a protein concentration of 1 mg/ml and homogenized just before use. Binding was performed with 1, 3, 10, 30, 100 or 300 nM of [^3H]-muscimol (20 Ci/mmol, Dupont-New England Nuclear) in triplicate in a final volume of 250 μl containing 200 μg of protein, and non-specific binding was determined in the presence of 1 mM GABA (Sigma). Samples were incubated at 4° C. for 30 minutes and labelled membranes were harvested on a Brandel cell harvester using GF/B filters (Whatman). The filters were washed with 3×4 ml binding assay buffer and the amount of radioactivity was determined by liquid scintillation counting. […]", "data": [{"smiles": "NCc1cc(=O)[nH]o1", "note": "[[^3H] Muscimol, Muscimol]", "values": [{"measurement": "Kd", "result": "54.7 ± 14.7", "unit": "nM"}]}]}
